Results published in ChEMBL document CHEMBL2321853, “Novel acylethanolamide derivatives that modulate body weight through enhancement of hypothalamic pro-opiomelanocortin (POMC) and/or decreased neuropeptide Y (NPY)” (J Med Chem, 2013).
Blank lines part the entries; values can stand above or below the molecule they belong to. Activity calls are given as the source filed them. The rule behind the calls is not given here.

Legend:
[1] = biological target: Transient receptor potential cation channel subfamily V member 1 (Rattus norvegicus) (UniProt O35433); experiment: Activation of TRPV1 in rat blood vessels; type: tissue-based; conditions: Blood vessel
Sequence of Transient receptor potential cation channel subfamily V member 1 (Rattus norvegicus) (O35433 whole entry): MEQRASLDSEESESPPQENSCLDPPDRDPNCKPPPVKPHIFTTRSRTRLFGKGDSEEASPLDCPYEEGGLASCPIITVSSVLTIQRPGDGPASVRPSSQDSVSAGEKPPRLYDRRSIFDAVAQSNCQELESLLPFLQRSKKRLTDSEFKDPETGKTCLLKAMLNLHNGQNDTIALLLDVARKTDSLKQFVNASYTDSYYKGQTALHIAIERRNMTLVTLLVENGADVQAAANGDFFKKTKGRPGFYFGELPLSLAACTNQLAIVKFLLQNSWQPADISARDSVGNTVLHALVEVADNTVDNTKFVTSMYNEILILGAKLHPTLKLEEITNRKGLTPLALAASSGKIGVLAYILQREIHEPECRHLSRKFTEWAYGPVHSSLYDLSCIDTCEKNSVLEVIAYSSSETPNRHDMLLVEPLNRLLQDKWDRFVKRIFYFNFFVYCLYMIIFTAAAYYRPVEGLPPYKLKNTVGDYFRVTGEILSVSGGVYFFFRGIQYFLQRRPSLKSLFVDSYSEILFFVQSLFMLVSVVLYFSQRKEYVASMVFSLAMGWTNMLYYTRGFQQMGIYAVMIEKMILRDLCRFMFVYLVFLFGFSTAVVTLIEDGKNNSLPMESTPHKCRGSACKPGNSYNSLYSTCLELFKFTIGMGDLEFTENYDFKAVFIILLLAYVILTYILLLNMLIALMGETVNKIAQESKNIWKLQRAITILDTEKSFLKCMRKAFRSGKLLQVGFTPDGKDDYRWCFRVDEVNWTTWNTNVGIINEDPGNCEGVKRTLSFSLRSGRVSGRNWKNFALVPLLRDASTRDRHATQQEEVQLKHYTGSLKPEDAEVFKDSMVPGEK

[2] = biological target: T1, Transient receptor potential cation channel subfamily V member 1 (Homo sapiens, UniProt Q8NER1); experiment: Activation of TRPV1 in HEK293 cells; type: cell-based
T1 sequence (Q8NER1 whole entry): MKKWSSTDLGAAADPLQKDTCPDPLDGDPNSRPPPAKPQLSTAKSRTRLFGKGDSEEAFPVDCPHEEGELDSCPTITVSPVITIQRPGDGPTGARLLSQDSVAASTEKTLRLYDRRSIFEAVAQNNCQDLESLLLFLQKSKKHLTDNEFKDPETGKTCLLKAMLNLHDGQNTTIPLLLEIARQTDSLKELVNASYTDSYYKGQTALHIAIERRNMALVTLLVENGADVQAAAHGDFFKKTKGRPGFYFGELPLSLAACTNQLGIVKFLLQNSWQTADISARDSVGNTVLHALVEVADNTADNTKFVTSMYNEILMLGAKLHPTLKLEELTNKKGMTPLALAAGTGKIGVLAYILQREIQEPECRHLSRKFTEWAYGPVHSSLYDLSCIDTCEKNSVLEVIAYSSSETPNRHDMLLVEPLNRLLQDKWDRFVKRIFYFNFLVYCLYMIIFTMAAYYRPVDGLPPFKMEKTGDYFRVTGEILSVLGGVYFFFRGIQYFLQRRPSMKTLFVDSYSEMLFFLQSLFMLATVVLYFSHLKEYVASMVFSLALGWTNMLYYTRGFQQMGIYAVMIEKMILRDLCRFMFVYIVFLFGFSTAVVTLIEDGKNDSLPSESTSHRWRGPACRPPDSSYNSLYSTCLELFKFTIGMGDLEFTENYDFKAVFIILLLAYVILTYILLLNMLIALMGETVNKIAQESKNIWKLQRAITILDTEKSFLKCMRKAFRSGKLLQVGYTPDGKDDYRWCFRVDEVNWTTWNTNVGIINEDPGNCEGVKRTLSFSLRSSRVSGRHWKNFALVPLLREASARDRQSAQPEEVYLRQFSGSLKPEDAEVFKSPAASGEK

Mus musculus [3] = experiment: Antiobesity activity in C57BL/6 mouse assessed as weight loss at 5 mg/kg, ip administered on day 1, 4, 5, 7, 17, 15, 19 measured on day 12 relative to control; type: functional; conditions: route intraperitoneal
Mus musculus [4] = experiment: Effect on neurological score in Sabra mouse assessed as change in neurological score at 1 mg/kg, ip administered on day 8, 12 and 43 by NSS method; type: functional, organism-based; set-up: dose 1 mg/kg
Mus musculus [5] = experiment: Antiobesity activity in Sabra mouse assessed as change in body weight at 1 mg/kg, ip administered on day 8, 12 and 43 measured on day 54 relative to control; type: functional; conditions: route intraperitoneal
Mus musculus [6] = experiment: Antiobesity activity in Sabra mouse assessed as change in body weight at 1 mg/kg, ip administered on day 8, 12 and 43 measured on day 33 relative to control; type: functional; conditions: route intraperitoneal
Mus musculus [7] = experiment: Antiobesity activity in C57BL/6 mouse assessed as change in AST level at 5 mg/kg, ip measured on day 36 (reference value: 146.7 IU/L); type: functional; conditions: route intraperitoneal
Mus musculus [8] = experiment: Antiobesity activity in C57BL/6 mouse assessed as change in glucose level in blood at 5 mg/kg, ip administered on day 1, 4, 5, 7, 17, 15, 19 measured on day 3 relative to control; type: functional; conditions: route intraperitoneal
Mus musculus [9] = experiment: Antiobesity activity in C57BL/6 mouse assessed as change in triglyceride level at 5 mg/kg, ip measured on day 36 (reference value: 0.92 mg/dL); type: functional; conditions: route intraperitoneal
Mus musculus [10] = experiment: Antiobesity activity in Sabra mouse assessed as change in body weight at 1 mg/kg, ip administered on day 8, 12 and 43 measured on day 71 relative to control; type: functional; conditions: route intraperitoneal
Mus musculus [11] = experiment: Antiobesity activity in C57BL/6 mouse assessed as weight loss at 5 mg/kg, ip administered on day 1, 4, 5, 7, 17, 15, 19 measured on day 8 relative to control; type: functional; conditions: route intraperitoneal
Mus musculus [12] = experiment: Enhancement of cognitive function in Sabra mouse at 1 mg/kg, ip administered on day 8, 12 and 43 by eight-arm maze test; type: functional, organism-based; set-up: dose 1 mg/kg
Mus musculus [13] = experiment: Antiobesity activity in C57BL/6 mouse assessed as weight loss at 5 mg/kg, ip administered on day 1, 4, 5, 7, 17, 15, 19 measured on day 17 relative to control; type: functional; conditions: route intraperitoneal
Mus musculus [14] = experiment: Antiobesity activity in Sabra mouse assessed as change in body weight at 1 mg/kg, ip administered on day 8, 12 and 43 measured on day 50 relative to control; type: functional; conditions: route intraperitoneal
Mus musculus [15] = experiment: Antiobesity activity in C57BL/6 mouse assessed as weight loss at 5 mg/kg, ip administered on day 1, 4, 5, 7, 17, 15, 19 measured on day 19 relative to control; type: functional; conditions: route intraperitoneal
Mus musculus [16] = experiment: Increase in ALT levels in Sabra mouse at 1 mg/kg, ip administered on day 8, 12 and 43 measured on day 74; type: ADME, organism-based; set-up: dose 1 mg/kg, route intraperitoneal; conditions: in vivo
Mus musculus [17] = experiment: Antiobesity activity in C57BL/6 mouse assessed as change in glucose level in blood at 5 mg/kg, ip administered on day 1, 4, 5, 7, 17, 15, 19 measured on day 5 relative to control; type: functional; conditions: route intraperitoneal
Mus musculus [18] = experiment: Antiobesity activity in C57BL/6 mouse assessed as weight loss at 5 mg/kg, ip administered on day 1, 4, 5, 7, 17, 15, 19 measured on day 5 relative to control; type: functional; conditions: route intraperitoneal
Mus musculus [19] = experiment: Antiobesity activity in C57BL/6 mouse assessed as weight loss at 5 mg/kg, ip administered on day 1, 4, 5, 7, 17, 15, 19 measured on day 11 relative to control; type: functional; conditions: route intraperitoneal
Mus musculus [20] = experiment: Antiobesity activity in Sabra mouse assessed as change in body weight at 1 mg/kg, ip administered on day 8, 12 and 43 measured on day 36 relative to control; type: functional; conditions: route intraperitoneal
Mus musculus [21] = experiment: Antiobesity activity in C57BL/6 mouse assessed as change in cholesterol level at 5 mg/kg, ip measured on day 36 (reference value: 86.58 mg/dL); type: functional; conditions: route intraperitoneal
Mus musculus [22] = experiment: Antiobesity activity in C57BL/6 mouse assessed as weight loss at 5 mg/kg, ip administered on day 1, 4, 5, 7, 17, 15, 19 measured on day 3 relative to control; type: functional; conditions: route intraperitoneal
Mus musculus [23] = experiment: Antiobesity activity in Sabra mouse assessed as change in body weight at 1 mg/kg, ip administered on day 8, 12 and 43 measured on day 29 relative to control; type: functional; conditions: route intraperitoneal
Mus musculus [24] = experiment: Antiobesity activity in C57BL/6 mouse assessed as change in glucose level in blood at 5 mg/kg, ip administered on day 1, 4, 5, 7, 17, 15, 19 measured on day 9 relative to control; type: functional; conditions: route intraperitoneal
Mus musculus [25] = experiment: Antiobesity activity in Sabra mouse assessed as change in body weight at 1 mg/kg, ip administered on day 8, 12 and 43 measured on day 8 relative to control; type: functional; conditions: route intraperitoneal
Mus musculus [26] = experiment: Antiobesity activity in C57BL/6 mouse assessed as change in glucose level in blood at 5 mg/kg, ip administered on day 1, 4, 5, 7, 17, 15, 19 measured on day 15 relative to control; type: functional; conditions: route intraperitoneal
Mus musculus [27] = experiment: Antiobesity activity in Sabra mouse assessed as change in body weight at 1 mg/kg, ip administered on day 8, 12 and 43 measured on day 43 relative to control; type: functional; conditions: route intraperitoneal
Mus musculus [28] = experiment: Antiobesity activity in Sabra mouse assessed as change in body weight at 1 mg/kg, ip administered on day 8, 12 and 43 measured on day 15 relative to control; type: functional; conditions: route intraperitoneal
Mus musculus [29] = experiment: Antiobesity activity in C57BL/6 mouse assessed as change in glucose level in blood at 5 mg/kg, ip administered on day 1, 4, 5, 7, 17, 15, 19 measured on day 11 relative to control; type: functional; conditions: route intraperitoneal
Mus musculus [30] = experiment: Antiobesity activity in C57BL/6 mouse assessed as weight loss at 5 mg/kg, ip administered on day 1, 4, 5, 7, 17, 15, 19 measured on day 15 relative to control; type: functional; conditions: route intraperitoneal
Mus musculus [31] = experiment: Antiobesity activity in C57BL/6 mouse assessed as weight loss at 5 mg/kg, ip administered on day 1, 4, 5, 7, 17, 15, 19 measured on day 9 relative to control; type: functional; conditions: route intraperitoneal
Mus musculus [32] = experiment: Antiobesity activity in Sabra mouse assessed as change in body weight at 1 mg/kg, ip administered on day 8, 12 and 43 measured on day 12 relative to control; type: functional; conditions: route intraperitoneal
Mus musculus [33] = experiment: Antiobesity activity in C57BL/6 mouse assessed as change in glucose level in blood at 5 mg/kg, ip administered on day 1, 4, 5, 7, 17, 15, 19 measured on day 19 relative to control; type: functional; conditions: route intraperitoneal
Mus musculus [34] = experiment: Antiobesity activity in Sabra mouse assessed as change in body weight at 1 mg/kg, ip administered on day 8, 12 and 43 measured on day 5 relative to control; type: functional; conditions: route intraperitoneal
Mus musculus [35] = experiment: Antiobesity activity in Sabra mouse assessed as reduction in body weight at 1 mg/kg, ip administered on day 0, 10, 11, 12, 24, 29 measured on day 29 relative to control; type: functional; set-up: scale not given: the % may be the effect or the level left; conditions: route intraperitoneal
Mus musculus [36] = experiment: Antiobesity activity in Sabra mouse assessed as reduction in body weight at 1 mg/kg, ip administered on day 0, 10, 11, 12, 24, 29 measured on day 22 relative to control; type: functional; set-up: scale not given: the % may be the effect or the level left; conditions: route intraperitoneal
Mus musculus [37] = experiment: Antiobesity activity in Sabra mouse assessed as reduction in body weight at 1 mg/kg, ip administered on day 0, 10, 11, 12, 24, 29 measured on day 39 relative to control; type: functional; set-up: scale not given: the % may be the effect or the level left; conditions: route intraperitoneal
Mus musculus [38] = experiment: Antiobesity activity in Sabra mouse assessed as reduction in body weight at 1 mg/kg, ip administered on day 0, 10, 11, 12, 24, 29 measured on day 33 relative to control; type: functional; set-up: scale not given: the % may be the effect or the level left; conditions: route intraperitoneal
Mus musculus [39] = experiment: Antiobesity activity in Sabra mouse assessed as reduction in body weight at 1 mg/kg, ip administered on day 0, 10, 11, 12, 24, 29 measured on day 36 relative to control; type: functional; set-up: scale not given: the % may be the effect or the level left; conditions: route intraperitoneal
Mus musculus [40] = experiment: Antiobesity activity in Sabra mouse assessed as reduction in body weight at 1 mg/kg, ip administered on day 0, 10, 11, 12, 24, 29 measured on day 19 relative to control; type: functional; set-up: scale not given: the % may be the effect or the level left; conditions: route intraperitoneal
Mus musculus [41] = experiment: Antiobesity activity in Sabra mouse assessed as reduction in body weight at 1 mg/kg, ip administered on day 0, 10, 11, 12, 24, 29 measured on day 26 relative to control; type: functional; set-up: scale not given: the % may be the effect or the level left; conditions: route intraperitoneal
Mus musculus [42] = experiment: Antiobesity activity in Sabra mouse assessed as reduction in body weight at 1 mg/kg, ip administered on day 0, 10, 11, 12, 24, 29 measured on day 24 relative to control; type: functional; set-up: scale not given: the % may be the effect or the level left; conditions: route intraperitoneal
Mus musculus [43] = experiment: Antiobesity activity in Sabra mouse assessed as reduction in body weight at 1 mg/kg, ip administered on day 0, 10, 11, 12, 24, 29 measured on day 12 relative to control; type: functional; set-up: scale not given: the % may be the effect or the level left; conditions: route intraperitoneal
[44] = biological target: T1, Transient receptor potential cation channel subfamily V member 1; experiment: Agonist activity at TRPV1 receptor (unknown origin)

Activity [1]: inactive
Activity [2]: inactive
Structure (SMILES): CCCCCCCCCCCCCCCC(=O)NCCO

Structure (SMILES): Cc1c(C(=O)NN2CCCCC2)nn(-c2ccc(Cl)cc2Cl)c1-c1ccc(Cl)cc1 [RIMONABANT]
Activity (Mus musculus [3]): -4.5%
Activity (Mus musculus [4]): inactive
Activity (Mus musculus [5]): -3.5%
Activity (Mus musculus [6]): 0.8%
Activity (Mus musculus [7]): 125.3 IU/L
Activity (Mus musculus [8]): 0.86%
Activity (Mus musculus [9]): 1.286 mg/dL
Activity (Mus musculus [10]): -0.9%
Activity (Mus musculus [11]): -3.5%
Activity (Mus musculus [12]): inactive
Activity (Mus musculus [13]): -1.9%
Activity (Mus musculus [14]): -2.4%
Activity (Mus musculus [15]): -4.5%
Activity (Mus musculus [16]): Active
Activity (Mus musculus [17]): -11%
Activity (Mus musculus [18]): -3.2%
Activity (Mus musculus [19]): -3.1%
Activity (Mus musculus [20]): -2.2%
Activity (Mus musculus [21]): 94.16 mg/dL
Activity (Mus musculus [22]): -0.6%
Activity (Mus musculus [23]): 1.5%
Activity (Mus musculus [24]): -16.2%
Activity (Mus musculus [25]): 3.2%
Activity (Mus musculus [26]): -15.5%
Activity (Mus musculus [27]): -3.1%
Activity (Mus musculus [28]): 1.6%
Activity (Mus musculus [29]): -20.7%
Activity (Mus musculus [30]): -4.5%
Activity (Mus musculus [31]): -4.6%
Activity (Mus musculus [32]): 0.9%
Activity (Mus musculus [33]): 19.8%
Activity (Mus musculus [34]): 0.3%

Structure (SMILES): CCCCCCCC/C=C\CCCCCCCC(=O)N(C)CCO
Activity (Mus musculus [35]): -1.44%
Activity (Mus musculus [36]): -0.48%
Activity (Mus musculus [37]): -3.67%
Activity (Mus musculus [38]): -0.3%
Activity (Mus musculus [39]): -3.28%
Activity (Mus musculus [40]): -0.48%
Activity (Mus musculus [41]): -0.5%
Activity (Mus musculus [42]): 0.03%
Activity (Mus musculus [43]): -0.61%

Structure (SMILES): CCCCC/C=C\C/C=C\CCCCCCCC(=O)NCCO [LINOLEOYLETHANOLAMIDE]
EC50 [44]: 630 nM
